In patent US20240350430A1, “GROWTH INHIBITOR OF METASTATIC HUMAN PROSTATE CANCER CELLS” (Watanabe Oyster Laboratory Co., Ltd., priority 2021, published 2024):

Experiments:
[1] = tested on: PC-3 cells; assay: Cell growth of PC-3 cells (cell counting); type: cell-based, human
Procedure: The PC-3 and DU-145 cells (the cell number of 1×10^5/in 1 ml of a culture fluid per hole using a 24-hole plate) were cultured in a DMEM culture fluid (containing 10% of FBS, 1% of P/S, and 1% of fungizone) containing the DHMBA (1 and 10 μM) under 5% of CO2, at 37° C., for one, two, three, four, and six days. […] After the culture, 0.1 ml of 0.05% trypsin-EDTA solution obtained by dissolving the cells adhering to the bottom surface of the culture dish in PBS (Thermo Fisher Scientific, Waltham, MA, USA) not containing Ca^2+/Mg^2+ was added, incubation was performed at 37° C. for two minutes to release the adhering cells, and 0.9 ml of the DMEM culture fluid containing 10% of FBS and 1% of P/S was added to stop the reaction. The cell number in the cell suspension was counted by the method described in the item of “Measurement of Cell Number.”
After the culture of the cells, 0.1 ml of 0.05% trypsin-EDTA solution obtained by dissolving the cells adhering to the bottom surface of the culture dish in PBS (Thermo Fisher Scientific, Waltham, MA, USA) not containing Ca^2+/Mg^2+ was added, incubation was performed at 37° C. for two minutes to release the adhering cells, and 0.9 ml of the DMEM culture fluid containing 10% of FBS and 1% of P/S was added to stop the reaction. The visible cells were counted by the Olympus MTV-3 microscope using a hemocytometer (Sigma-Aldrich).
FIG. 1(C) is a diagram in which the PC-3 cells (1×10^5 cells/per well of a 24-well plate) were cultured under 5% of CO2, at 37° C., for one to six days in a DMEM culture fluid (containing 10% of FBS, 1% of P/S, and 1% of fungizone) containing the DHMBA (10 μM).
In FIGS. 1(D) and 1(E), the PC-3 cells (1×10^5 cells/per well of a 24-well plate) were cultured under 5% of CO2, at 37° C., for three (FIG. 1D) and six (FIG. 1E) days in a DMEM culture fluid (containing 10% of FBS, 1% of P/S, and 1% of fungizone) containing the DHMBA (0.01, 0.1, 1, 10, 100, and 1000 μM). After the culture, the cells adhered to the bottom surface of the dish were removed and counted. […] 1-way ANOVA, Tukey-Kramer post-test.
FIGS. 3(A) and 3(B) are diagrams in which the PC-3 cells (1×10^5 cells/ml/per well of a 24-well plate) were cultured under 5% of CO2, at 37° C., for three days in a DMEM culture fluid (containing 10% of FBS, 1% of P/S, and 1% of fungizone) containing the DHMBA (10 μM) containing cell cycle inhibitors, roscovitine (10 and 100 nM), butyrate (10 and 100 μM), and sulforaphane (1 and 10 nM).
After the culture, the cells adhered to the dish were removed and counted. […] 1-way ANOVA, Tukey-Kramer post-test.
In the drawing, the PC-3 cells (1×10^5/in 1 ml of a culture fluid per hole using a 24-hole plate) were cultured under 5% of CO2, at 37° C., for three days in a DMEM culture fluid (containing 10% of FBS, 1% of P/S, and 1% of fungizone) in the presence of the DHMBA (10 μM) and an aryl hydrocarbon receptor inhibitor CH223191 (1, 10, or 25 μM) to examine the action on cell growth.

[2] = tested on: PC-3 cells; assay: Intracellular active oxygen (ROS) production, H2DCFDA, PC-3 cells; type: cell-based, human; details: DHMBA 1, 10, 100, and 1000 μM, 24 hours
Procedure: The intracellular active oxygen (reactive oxygen species: ROS) was measured using an ROS measurement kit (MAK144-1 Kit, Sigma-Aldrich) using pro-fluorescent substrate H2DCFDA. The PC-3 and DU-145 cells (the cell number of 2.5×10^4/per well, in 0.1 ml of a culture fluid per hole using a 96-hole plate) were cultured in a DMEM culture fluid (containing 10% of FBS, 1% of P/S, and 1% of fungizone) containing the DHMBA (0.1, 1, 10, 100, or 1000 μM) under 5% of CO2, at 37° C., for 24 hours. After the culture, the cells were washed with PBS, 0.1 ml and 25 μM of an H2DCFDA solution was added, and incubation was performed for 45 minutes. Afterwards, the cells were washed with PBS, and as the amount of active oxygen produced in the cells, fluorescence intensity was measured using a fluorescence measurement plate reader at a wavelength Ex/Em=485/535 nm.
The PC-3 and DU-145 cells (2.5×10^4/0.1 ml of a culture fluid per hole using a 96-hole plate) were cultured under 5% of CO2, at 37° C., for 24 hours in a DMEM culture fluid (containing 10% of FBS, 1% of P/S, and 1% of fungizone) containing the DHMBA (0.1, 1, 10, 100, or 1000 μM). […] After the cells were washed with PBS, a fluorescence intensity of the cells was measured using a fluorescence measurement plate reader at a wavelength Ex/Em=485/535 nm. […]

## COc1c(O)cc(CO)cc1O [DHMBA, 3,5-dihydroxy-4-methoxybenzyl alcohol]
[1]; DHMBA 0.01 μM
  effect on cell growth at low concentration: significant effect
[1]; DHMBA 10 μM with CH223191 1, 10, or 25 μM, three days
  cell growth inhibitory effect of DHMBA in the presence of CH223191: found not to be expressed
[1]; DHMBA 10 μM with roscovitine, butyrate or sulforaphane, three days
  cell growth inhibitory effect of DHMBA in the presence of cell cycle inhibitors: not observed
[1]; DHMBA 10 μM with wortmannin, PD98059 or staurosporine, three days
  cell growth inhibitory effect of DHMBA in the presence of signaling inhibitors: no significant cell growth inhibitory effect
[1]; DHMBA 10 μM, one to six days
  cell growth: inhibited
[2]
  amount of intracellular active oxygen production: significant inhibition
